Data reported in patent publication US20260035360A1, “INHIBITORS OF MYC AND USES THEREOF” (Northwestern University, priority 2022, published 2026).
Where two headings read alike, the source gives them in different places.

What was measured:
MYC = molecular target: T1, MYC (Homo sapiens, UniProt P01106); experiment: MYC protein level in PC3 cells by western blot, 24 hr; format: cell-based; settings: Actin control, read-out: Relative MYC protein at 10 μM (%, PC3 24 h)
T1 construct: endogenous in cells; host or cells: PC3 cells
Description: (§1) Table 2. Biological data of selected compounds. For IC50 determination. PC3 and PC12 cells were treated with increasing concentrations of the indicated compounds for 72 hrs and cell viability assessed using CellTitreGlo Assay (Promega). For MYC and ATF4 protein level determination. PC3 cells were treated with the indicated compounds for 24 hr sand cell lysates processed for western blot with MYC and ATF4 antibodies using Actin as a control. Quantification analyses were performed by Biorad ChemiDoc Imager and Bio-Rad Image Lab software.

ATF4 = ATF4 protein level in PC3 cells by western blot, 24 hr; format: cell-based; settings: Homo sapiens, PC-3, PC3, 24 h, Actin control, read-out: Relative ATF4 protein at 10 μM (fold change, PC3 24 h)
Description: as §1

T1 sequence (P01106 whole entry): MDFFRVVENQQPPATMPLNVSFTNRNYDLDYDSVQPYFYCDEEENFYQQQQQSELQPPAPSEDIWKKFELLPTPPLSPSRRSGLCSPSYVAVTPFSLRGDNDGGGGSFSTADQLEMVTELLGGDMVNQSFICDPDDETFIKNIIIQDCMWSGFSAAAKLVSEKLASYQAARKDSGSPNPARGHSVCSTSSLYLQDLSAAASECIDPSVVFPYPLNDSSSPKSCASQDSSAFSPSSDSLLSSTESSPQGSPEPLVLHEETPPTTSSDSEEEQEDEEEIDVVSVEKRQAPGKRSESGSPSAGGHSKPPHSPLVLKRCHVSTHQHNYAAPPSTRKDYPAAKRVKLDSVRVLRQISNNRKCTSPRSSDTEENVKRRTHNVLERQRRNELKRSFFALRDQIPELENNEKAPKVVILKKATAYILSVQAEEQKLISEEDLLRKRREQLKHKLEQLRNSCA

| remaining activity at 10 µM (MYC; PC-3, 24 h, PC3, 24 h) | Compound | fold induction at 10 µM (ATF4) | remaining activity at 10 µM (MYC; PC-3, PC3, 24 h) |
| --- | --- | --- | --- |
| 90.6% | Cn1nc(C(F)(F)F)cc1-c1ccc(OCCCCCNC(=O)[C@H](CCCN=C(NC(=O)OC(C)(C)C)NC(=O)OC(C)(C)C)NC(=O)OC(C)(C)C)c(-c2ccc(Cl)c(C(F)(F)F)c2)c1O [NUCC-0226219] |  |  |
| 90.1% | Cc1ncsc1-c1ccc(CNC(=O)[C@@H]2C[C@@H](O)CN2C(=O)[C@@H](NC(=O)C2(F)CC2)C(C)(C)C)c(OCCOCCOCCOCCCCCOc2ccc(-c3cc(C(F)(F)F)nn3C)c(O)c2-c2ccc(Cl)c(C(F)(F)F)c2)c1 [NUCC-0226220] |  |  |
| 85.9% | Cc1ncsc1-c1ccc(CNC(=O)[C@@H]2C[C@@H](O)CN2C(=O)[C@@H](NC(=O)C2(F)CC2)C(C)(C)C)c(OCCOCCOCCOCCOCCCCCOc2ccc(-c3cc(C(F)(F)F)nn3C)c(O)c2-c2ccc(Cl)c(C(F)(F)F)c2)c1 [NUCC-0226221] |  |  |
| 105% | Cn1nc(C(F)(F)F)cc1-c1ccc(N(CCCOCCC(=O)NCCCCNC(=O)COc2cccc3c2C(=O)N(C2CCC(=O)NC2=O)C3=O)C(=O)c2ccc(Cl)c(C(F)(F)F)c2)cc1O (centres unmarked) [NUCC-0226230] | 1.9 |  |
| 56.4% | CC(=O)Oc1c(-c2cc(C(F)(F)F)nn2C)ccc(OCc2ccccc2)c1-c1ccc(Cl)c(C(F)(F)F)c1 [NUCC-0226258] | 5.8 |  |
| 52% | Cn1nc(C(F)(F)F)cc1-c1ccc(O)c(-c2ccc(Cl)c(C(F)(F)F)c2)c1O [NUCC-0226259] | 3.3 |  |
|  | Cn1nc(C(F)(F)F)cc1-c1ccc(OCc2ccccc2)c(-c2ccc(Cl)c(C(F)(F)F)c2)c1O [NUCC-0226260] | 4.6 | 41.5% |
| 93.1% | O=c1oc2c(-c3ccc(Cl)c(C(F)(F)F)c3)c(O)ccc2c2cc(C(F)(F)F)nn12 [NUCC-0226261] | 4.4 |  |
| 113% | CC(=O)Oc1c(-c2cc(C(F)(F)F)nn2C)ccc(OCc2ccc(OCCOCCOS(=O)(=O)c3ccc(C)cc3)cc2)c1-c1ccc(Cl)c(C(F)(F)F)c1 [NUCC-0226263] | 0.7 |  |
| 102% | Cc1ncsc1-c1ccc(CNC(=O)[C@@H]2C[C@@H](O)CN2C(=O)[C@@H](NC(=O)C2(F)CC2)C(C)(C)C)c(OCCOCCOCCCCCOc2ccc(-c3cc(C(F)(F)F)nn3C)c(O)c2-c2ccc(Cl)c(C(F)(F)F)c2)c1 [NUCC-0226264] | 1.3 |  |
| 115% | Cc1ncsc1-c1ccc(CNC(=O)[C@@H]2C[C@@H](O)CN2C(=O)[C@@H](NCCOCCOCCCCCOc2ccc(-c3cc(C(F)(F)F)nn3C)c(O)c2-c2ccc(Cl)c(C(F)(F)F)c2)C(C)(C)C)cc1 [NUCC-0226265] | 2.2 |  |
| 91.8% | Cc1ncsc1-c1ccc(CNC(=O)[C@@H]2C[C@@H](O)CC2C(=O)[C@@H](NCCOCCOCCOCCCCCOc2ccc(-c3cc(C(F)(F)F)nn3C)c(O)c2-c2ccc(Cl)c(C(F)(F)F)c2)C(C)(C)C)cc1 (some centres unmarked) [NUCC-0226266] | 1.7 |  |
| 52.9% | COCCOCCCN(C(=O)c1ccc(C(F)(F)F)c(Cl)c1)c1ccc(-c2cc(C(F)(F)F)nn2C)c(O)c1 [NUCC-0226268] | 5.4 |  |
| 70% | Cc1ncsc1-c1ccc(CNC(=O)[C@@H]2C[C@@H](O)CN2C(=O)[C@@H](NCCOCCOc2ccc(COc3ccc(-c4cc(C(F)(F)F)nn4C)c(O)c3-c3ccc(Cl)c(C(F)(F)F)c3)cc2)C(C)(C)C)cc1 [NUCC-0226276] | 0.4 |  |
| 97.6% | Cc1ncsc1-c1ccc(CNC(=O)[C@@H]2C[C@@H](O)CN2C(=O)[C@@H](NC(=O)C2(F)CC2)C(C)(C)C)c(OCCOCCOc2ccc(COc3ccc(-c4cc(C(F)(F)F)nn4C)c(O)c3-c3ccc(Cl)c(C(F)(F)F)c3)cc2)c1 [NUCC-0226277] | 1.6 |  |
| 85.1% | Cn1nc(C(F)(F)F)cc1-c1ccc(OCc2ccc(OCCOCCOc3cccc4c3C(=O)N(C3CCC(=O)NC3=O)C4=O)cc2)c(-c2ccc(Cl)c(C(F)(F)F)c2)c1O (centres unmarked) [NUCC-0226279] | 2.1 |  |
